Assay results published in ChEMBL document CHEMBL5678818, “Discovery of potent SOS1 inhibitors that block RAS activation via disruption of the RAS-SOS1 interaction” (Proc Natl Acad Sci U S A, 2019).

Tests used:
[1] = biological target: T1, Interleukin-1 receptor-associated kinase 3 (Homo sapiens) (UniProt Q9Y616); experiment: Inhibition of IRAK3 (unknown origin) assessed as residual activity at 1000 nM by KINOMEscan analysis relative to control
T1 sequence (whole entry): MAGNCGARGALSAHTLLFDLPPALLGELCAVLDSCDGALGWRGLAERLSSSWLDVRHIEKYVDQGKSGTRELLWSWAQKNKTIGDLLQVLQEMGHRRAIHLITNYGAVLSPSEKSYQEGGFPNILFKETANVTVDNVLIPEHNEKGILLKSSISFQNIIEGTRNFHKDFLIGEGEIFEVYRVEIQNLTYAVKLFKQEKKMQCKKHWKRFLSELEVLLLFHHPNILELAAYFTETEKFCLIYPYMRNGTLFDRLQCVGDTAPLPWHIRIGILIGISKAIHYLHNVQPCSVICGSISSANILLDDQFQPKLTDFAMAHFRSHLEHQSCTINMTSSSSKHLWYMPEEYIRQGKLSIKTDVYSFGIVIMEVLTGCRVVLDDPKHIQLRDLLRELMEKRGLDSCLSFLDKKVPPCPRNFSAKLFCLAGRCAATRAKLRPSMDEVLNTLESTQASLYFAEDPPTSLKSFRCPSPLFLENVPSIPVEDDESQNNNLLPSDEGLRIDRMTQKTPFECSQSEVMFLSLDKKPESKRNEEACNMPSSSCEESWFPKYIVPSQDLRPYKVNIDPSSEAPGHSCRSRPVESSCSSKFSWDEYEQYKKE

[2] = biological target: T2, cAMP-dependent protein kinase catalytic subunit PRKX (Homo sapiens) (UniProt P51817); experiment: Inhibition of PRKX (unknown origin) assessed as residual activity at 1000 nM by KINOMEscan analysis relative to control
T2 sequence (whole entry): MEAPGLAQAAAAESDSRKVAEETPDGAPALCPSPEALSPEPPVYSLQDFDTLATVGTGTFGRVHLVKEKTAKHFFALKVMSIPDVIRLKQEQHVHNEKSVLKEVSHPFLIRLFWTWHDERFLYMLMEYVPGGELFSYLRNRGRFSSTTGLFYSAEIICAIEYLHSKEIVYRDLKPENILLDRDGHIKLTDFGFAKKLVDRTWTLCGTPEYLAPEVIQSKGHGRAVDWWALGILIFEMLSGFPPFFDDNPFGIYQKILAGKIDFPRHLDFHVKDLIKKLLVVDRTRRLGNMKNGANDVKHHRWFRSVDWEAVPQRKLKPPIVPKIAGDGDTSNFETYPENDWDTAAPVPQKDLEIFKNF

[3] = biological target: Serine/threonine-protein kinase SIK1 (Homo sapiens) (UniProt P57059); experiment: Inhibition of SIK (unknown origin) assessed as residual activity at 1000 nM by KINOMEscan analysis relative to control
Sequence of Serine/threonine-protein kinase SIK1 (Homo sapiens) (P57059 whole entry): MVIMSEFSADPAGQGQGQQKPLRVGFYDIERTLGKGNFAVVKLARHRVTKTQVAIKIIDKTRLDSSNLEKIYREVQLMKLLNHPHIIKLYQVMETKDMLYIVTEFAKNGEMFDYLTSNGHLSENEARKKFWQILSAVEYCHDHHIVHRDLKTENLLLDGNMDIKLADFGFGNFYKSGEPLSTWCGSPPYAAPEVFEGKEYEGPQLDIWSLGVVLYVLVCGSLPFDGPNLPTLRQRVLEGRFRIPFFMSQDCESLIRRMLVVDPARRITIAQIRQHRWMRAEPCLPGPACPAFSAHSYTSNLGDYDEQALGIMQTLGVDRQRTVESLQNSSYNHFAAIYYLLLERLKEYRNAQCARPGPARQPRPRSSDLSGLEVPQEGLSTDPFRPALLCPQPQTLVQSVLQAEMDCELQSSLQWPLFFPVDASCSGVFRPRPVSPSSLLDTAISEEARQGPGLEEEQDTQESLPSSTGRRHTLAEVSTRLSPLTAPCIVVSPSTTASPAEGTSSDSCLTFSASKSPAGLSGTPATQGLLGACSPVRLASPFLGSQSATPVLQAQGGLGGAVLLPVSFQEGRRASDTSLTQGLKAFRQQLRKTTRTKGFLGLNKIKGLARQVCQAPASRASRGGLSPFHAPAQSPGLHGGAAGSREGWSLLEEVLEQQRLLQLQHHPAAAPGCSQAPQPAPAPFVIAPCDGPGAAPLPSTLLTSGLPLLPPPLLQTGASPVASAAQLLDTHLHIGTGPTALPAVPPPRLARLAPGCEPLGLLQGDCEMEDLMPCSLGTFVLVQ

[4] = biological target: T3, Mitogen-activated protein kinase kinase kinase 3 (Homo sapiens) (UniProt Q99759); experiment: Inhibition of MAP3K3 (unknown origin) assessed as residual activity at 1000 nM by KINOMEscan analysis relative to control
T3 sequence (whole entry): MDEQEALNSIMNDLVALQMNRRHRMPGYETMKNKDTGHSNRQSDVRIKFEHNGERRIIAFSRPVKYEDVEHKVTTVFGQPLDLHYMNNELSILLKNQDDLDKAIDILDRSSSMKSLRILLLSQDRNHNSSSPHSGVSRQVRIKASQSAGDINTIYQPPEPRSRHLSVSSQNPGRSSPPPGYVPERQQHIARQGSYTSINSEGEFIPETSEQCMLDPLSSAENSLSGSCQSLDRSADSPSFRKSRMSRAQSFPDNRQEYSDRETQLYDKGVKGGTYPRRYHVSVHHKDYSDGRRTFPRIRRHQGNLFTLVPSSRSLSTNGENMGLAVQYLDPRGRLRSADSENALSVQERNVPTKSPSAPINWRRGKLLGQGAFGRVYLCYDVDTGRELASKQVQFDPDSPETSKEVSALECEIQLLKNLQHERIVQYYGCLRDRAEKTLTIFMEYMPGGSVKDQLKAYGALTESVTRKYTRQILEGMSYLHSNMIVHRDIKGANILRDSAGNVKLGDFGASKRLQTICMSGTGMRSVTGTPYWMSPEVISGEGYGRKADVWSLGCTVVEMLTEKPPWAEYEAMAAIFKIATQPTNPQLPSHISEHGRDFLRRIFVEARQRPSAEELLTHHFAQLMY

[5] = biological target: Interleukin-1 receptor-associated kinase 1 (Homo sapiens) (UniProt P51617); experiment: Inhibition of IRAK1 (unknown origin) assessed as residual activity at 1000 nM by KINOMEscan analysis relative to control
Sequence of Interleukin-1 receptor-associated kinase 1 (Homo sapiens) (P51617 whole entry, looked up): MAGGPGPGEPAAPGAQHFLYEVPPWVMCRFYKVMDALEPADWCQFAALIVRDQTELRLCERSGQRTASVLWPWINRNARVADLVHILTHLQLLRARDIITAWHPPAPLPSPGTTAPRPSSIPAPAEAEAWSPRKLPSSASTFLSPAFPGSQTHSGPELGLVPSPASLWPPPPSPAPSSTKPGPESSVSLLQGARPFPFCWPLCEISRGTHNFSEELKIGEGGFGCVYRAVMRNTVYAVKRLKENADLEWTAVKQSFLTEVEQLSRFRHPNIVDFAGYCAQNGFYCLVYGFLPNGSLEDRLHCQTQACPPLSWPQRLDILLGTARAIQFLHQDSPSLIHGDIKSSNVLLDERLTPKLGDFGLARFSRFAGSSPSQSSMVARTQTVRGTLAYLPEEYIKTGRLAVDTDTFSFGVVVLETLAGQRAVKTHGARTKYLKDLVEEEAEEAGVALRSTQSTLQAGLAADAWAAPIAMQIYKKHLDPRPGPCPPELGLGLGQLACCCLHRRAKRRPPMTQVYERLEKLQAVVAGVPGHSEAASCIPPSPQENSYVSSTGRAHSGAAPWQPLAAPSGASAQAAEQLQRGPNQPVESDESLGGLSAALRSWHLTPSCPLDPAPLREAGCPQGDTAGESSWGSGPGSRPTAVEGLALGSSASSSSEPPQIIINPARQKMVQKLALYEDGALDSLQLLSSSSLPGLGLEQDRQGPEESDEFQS

[6] = biological target: T4, Aurora kinase C (Homo sapiens) (UniProt Q9UQB9); experiment: Inhibition of AURKC (unknown origin) assessed as residual activity at 1000 nM by KINOMEscan analysis relative to control
T4 sequence (whole entry): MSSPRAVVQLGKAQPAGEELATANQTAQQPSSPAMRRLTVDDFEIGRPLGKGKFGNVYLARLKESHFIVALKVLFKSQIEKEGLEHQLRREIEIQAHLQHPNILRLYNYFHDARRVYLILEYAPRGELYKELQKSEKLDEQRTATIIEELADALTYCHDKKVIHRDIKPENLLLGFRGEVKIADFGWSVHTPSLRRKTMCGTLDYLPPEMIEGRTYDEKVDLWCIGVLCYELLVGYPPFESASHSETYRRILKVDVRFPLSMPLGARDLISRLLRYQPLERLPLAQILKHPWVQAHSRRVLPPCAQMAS

[7] = biological target: Tyrosine-protein kinase FRK (Homo sapiens) (UniProt P42685); experiment: Inhibition of FRK (unknown origin) assessed as residual activity at 1000 nM by KINOMEscan analysis relative to control
Sequence of Tyrosine-protein kinase FRK (Homo sapiens) (P42685 whole entry): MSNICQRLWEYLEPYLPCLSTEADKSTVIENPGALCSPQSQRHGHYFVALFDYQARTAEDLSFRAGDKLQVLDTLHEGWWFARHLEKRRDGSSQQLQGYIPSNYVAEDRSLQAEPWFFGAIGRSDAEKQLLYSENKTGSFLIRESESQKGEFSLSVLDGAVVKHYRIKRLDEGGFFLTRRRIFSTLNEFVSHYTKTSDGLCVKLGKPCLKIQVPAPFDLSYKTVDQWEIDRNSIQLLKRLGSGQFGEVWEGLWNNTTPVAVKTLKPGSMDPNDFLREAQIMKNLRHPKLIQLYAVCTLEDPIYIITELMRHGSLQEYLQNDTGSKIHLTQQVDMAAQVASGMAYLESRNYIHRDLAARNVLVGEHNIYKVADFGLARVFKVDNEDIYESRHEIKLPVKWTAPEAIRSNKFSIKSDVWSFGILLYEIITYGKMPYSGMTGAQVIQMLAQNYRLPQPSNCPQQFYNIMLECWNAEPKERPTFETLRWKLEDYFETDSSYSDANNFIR

[8] = biological target: T5, Activin receptor type-1B (Homo sapiens) (UniProt P36896); experiment: Inhibition of ACVR1B (unknown origin) assessed as residual activity at 1000 nM by KINOMEscan analysis relative to control
T5 sequence (whole entry): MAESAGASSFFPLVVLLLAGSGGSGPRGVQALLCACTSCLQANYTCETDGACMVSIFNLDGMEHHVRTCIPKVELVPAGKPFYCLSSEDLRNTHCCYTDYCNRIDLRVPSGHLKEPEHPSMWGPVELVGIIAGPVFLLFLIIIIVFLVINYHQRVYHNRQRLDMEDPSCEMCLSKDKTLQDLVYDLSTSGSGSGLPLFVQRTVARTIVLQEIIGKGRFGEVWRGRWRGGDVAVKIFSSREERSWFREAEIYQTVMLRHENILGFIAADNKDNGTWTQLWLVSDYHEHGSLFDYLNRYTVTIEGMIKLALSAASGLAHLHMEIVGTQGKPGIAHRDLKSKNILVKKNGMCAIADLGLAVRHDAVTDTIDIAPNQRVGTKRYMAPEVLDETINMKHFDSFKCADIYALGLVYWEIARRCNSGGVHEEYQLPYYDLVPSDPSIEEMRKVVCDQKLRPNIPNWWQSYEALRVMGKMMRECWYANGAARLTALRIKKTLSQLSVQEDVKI

COc1cc2nc(C)nc(N[C@H](C)c3cccc(-c4cn[nH]c4)c3)c2cc1OC
Activity [1]: 100% | Activity [2]: 100% | Activity [3]: 65% | Activity [4]: 95% | Activity [5]: 68% | Activity [6]: 74% | Activity [7]: 76% | Activity [8]: 100%

COc1cc2ncnc(N[C@H](C)c3cccc4ccccc34)c2cc1OC
Activity [1]: 100% | Activity [2]: 96% | Activity [3]: 98% | Activity [4]: 100% | Activity [5]: 85% | Activity [6]: 100% | Activity [7]: 94% | Activity [8]: 100%
